# Measured values reported in patent publication US6617314B2, “Injectable formulations of avermectins and milbemycins” (Bayer Aktiengesellschaft, priority 1996, dated 2003).
# Assay: solubility of ivermectin in solvents
# Type: physicochemical
# From the text: The solubility of ivermectin in benzyl alcohol is >40% by weight and in castor oil ˜4% by weight.
substance,measurement,setting,value
"22,23-dihydroavermectin B1 [ivermectin]",solubility in benzyl alcohol,solvent benzyl alcohol,> 40 % by weight
same,solubility in castor oil,solvent castor oil,~4 % by weight
